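Five compound concentrations were applied to cells in 96-well plates for 48 hours; endpoints were derived by simple linear interpolation of the resulting dose-response curve. At the GI50, growth is halved. The concentration for full growth arrest is given as TGI.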
Legend:
Experiment in all cases: growth of human tumour cells (NCI), 48 h
UACC-62 melanoma = system: UACC-62 melanoma
COLO 205 colon = system: COLO 205 colon
BT-549 breast = system: BT-549 breast
MDA-MB-231 breast = system: MDA-MB-231 breast
CAKI-1 renal = system: CAKI-1 renal
PC-3 prostate = system: PC-3 prostate
SK-MEL-28 melanoma = system: SK-MEL-28 melanoma
K-562 leukemia = system: K-562 leukemia
ACHN renal = system: ACHN renal
T-47D breast = system: T-47D breast

SMILES	TGI (UACC-62 melanoma)	TGI (COLO 205 colon)	TGI (BT-549 breast)	TGI (MDA-MB-231 breast)	TGI (CAKI-1 renal)	TGI (PC-3 prostate)	TGI (SK-MEL-28 melanoma)	TGI (K-562 leukemia)	TGI (ACHN renal)	TGI (T-47D breast)	GI50 (UACC-62 melanoma)	GI50 (COLO 205 colon)	GI50 (SK-MEL-28 melanoma)	GI50 (K-562 leukemia)
CC1(C)CC(=O)C2=C(C1)OC1(CC2c2ccc(Cl)cc2)CC(c2ccc(Cl)cc2)C2=C(CC(C)(C)CC2=O)O1 (configuration not stated)	> 53.5 µM	36.6 µM	50.6 µM	50.3 µM	52.3 µM	> 65.9 µM	34 µM	> 51.3 µM	38.9 µM					
CC/C(=C\c1ccc(OC)cc1)c1ccc(OC)cc1	> 100 µM	> 100 µM	> 100 µM	> 100 µM	> 100 µM	> 100 µM		> 100 µM	> 100 µM					
O=C(CCC1CCCCN1)Nc1ccc2c(c1)C(=O)c1ccc(NC(=O)CCN3CCCCC3)cc1C2=O (configuration not stated)		2.65 µM			5.61 µM		3.77 µM	4.97 µM						
Cc1csc(-n2c(C)nc3cc(Cl)ccc3c2=O)n1	> 100 µM	> 100 µM	> 100 µM	> 100 µM	> 100 µM	> 100 µM	> 100 µM	> 100 µM	> 100 µM					
CCOC(C)OC1CC(n2cc(C)c(=O)[nH]c2=O)OC1CO (configuration not stated)		> 100 µM					> 100 µM	> 100 µM	> 100 µM					
CCCCC[C@H]1CCCCCCCCCC(=O)OC2C(O[C@@H]3OC(C)[C@H](OC(=O)[C@@H](C)CC)C(O[C@@H]4OC(C)[C@H](O)C(O)[C@@H]4O)[C@@H]3OC(=O)[C@H](C)CC)[C@H](OC3C(O)[C@@H](O)C(C)O[C@H]3O1)OC(CO)[C@H]2O (some centres not stated)	30.9 µM	25 µM		30.7 µM	31.7 µM	29.8 µM	30.9 µM	32.9 µM		33.3 µM				
C(=C/c1nc2ccccc2o1)/c1ccc2c(c1)OCO2	> 45.5 µM	> 100 µM			40 µM		> 100 µM	> 65.3 µM						
CN(C)/C=C/C=C(/C=N/S(=O)(=O)C(F)(F)F)C1C=CN(S(=O)(=O)C(F)(F)F)C=C1	83.9 µM	32.6 µM	70.1 µM	81.7 µM	76.6 µM		> 100 µM	> 100 µM	84.7 µM	75 µM				
COC(=O)C1c2cc3c(c(O)c2C(O)CC1(C)O)C(=O)c1c(O)cc2c(c1C3=O)OC1OC2(C)C(O)C(N(C)C)C1O (configuration not stated)		> 32.4 µM	17.7 µM	2.64 µM	14.2 µM	2.43 µM		> 100 µM		4.6 µM				
CCn1c2ccccc2c2cc(Nc3cc(C)[nH]c(=O)n3)ccc21	> 100 µM	> 100 µM		> 100 µM	> 100 µM	> 100 µM	> 100 µM	> 100 µM	> 100 µM	> 100 µM				
COc1cc(/C=N/NC2=NCCN2)ccc1O	> 100 µM	> 100 µM	> 100 µM	> 100 µM		> 100 µM	> 100 µM	> 100 µM	> 100 µM	> 100 µM				
CC1OC(=O)C(C(C)C)NC(=O)C(C(C)C)OC(=O)C(C(C)C)NC(=O)C(C)OC(=O)C(C(C)C)NC(=O)C(C(C)C)OC(=O)C(C(C)C)NC(=O)C(C)OC(=O)C(C(C)C)NC(=O)C(C(C)C)OC(=O)C(C(C)C)NC1=O (configuration not stated)	5.58 µM				0.00345 µM		5.63 µM	6.36 µM	< 0.0001 µM	0.0138 µM	< 0.0001 µM	< 0.0001 µM	< 0.0001 µM	< 0.0001 µM
Cc1ccc(NC(=O)CC(=O)n2nc(C)c(N=Nc3cccc(C)c3)c2C)cc1	> 100 µM	> 100 µM	> 100 µM	> 100 µM	> 100 µM	> 100 µM	> 100 µM		> 100 µM	> 100 µM				
CC(C)C(NC(=O)C(Cc1ccccc1)NC(=O)[C@H]1CCC[C@H]1NC(=O)C(Cc1ccc(OC(C)(C)C)cc1)NC(=O)OC(C)(C)C)C(N)=O (some centres not stated)	40.5 µM	36.9 µM		49.5 µM	> 100 µM	54 µM	40 µM	44.4 µM	> 100 µM	46.9 µM				
Clc1cc2nnn(C3CCCO3)c2cc1Cl (configuration not stated)	> 100 µM	> 100 µM	> 100 µM	> 100 µM	> 100 µM	> 100 µM		> 100 µM		> 100 µM				
CC(C)c1ccc(/C=C2\CSCC3=C2N=C2SCC(=O)N2C3c2ccc(C(C)C)cc2)cc1 (configuration not stated)	> 100 µM	> 100 µM		> 100 µM	> 100 µM	> 100 µM	> 100 µM	> 100 µM	> 100 µM	> 100 µM				
N#Cc1nc(-c2cccc(-c3nc(C#N)c(N)o3)n2)oc1N	> 100 µM	> 100 µM		> 100 µM	> 100 µM	> 100 µM	> 100 µM	> 100 µM	> 100 µM	> 100 µM				
COc1ccc(CNc2nc3ccccc3nc2C(=O)O)cc1	> 100 µM	> 100 µM	> 100 µM	> 100 µM	> 100 µM	> 100 µM	> 100 µM	> 100 µM		> 100 µM				
CC(=O)OCC1OC(n2c(-c3ccccc3)c(N=Nc3ccc(C)cc3)c(C)c(C#N)c2=S)C(OC(C)=O)C(OC(C)=O)C1OC(C)=O (configuration not stated)		> 100 µM	19 µM	> 100 µM	64.5 µM		94.4 µM	> 100 µM	> 100 µM	> 100 µM				
O=C(Nc1ccc(Cl)cc1)c1cc(S(=O)(=O)Nc2n[nH]c(=O)n2-c2ccccc2)c(S)cc1Cl	> 100 µM	> 100 µM	> 100 µM	> 100 µM	> 100 µM		> 100 µM			> 100 µM				
CCCCCCCCCCCCO[P+](=O)OCCCCCCCCCCCC	> 100 µM	> 100 µM	> 100 µM	> 100 µM		> 100 µM	> 100 µM	> 100 µM	> 100 µM	> 100 µM				
CN1CCC2(CC1)C(=NC1CCCCC1)NC(=O)N2c1ccccc1	> 100 µM	> 100 µM		> 100 µM			> 100 µM		> 100 µM	> 100 µM				
CCCCCCCCCCCCOP(=O)(O)OP(=O)(O)OCC1OC(n2cc(C)c(=O)[nH]c2=O)CC1O (configuration not stated)		> 100 µM	> 100 µM	> 100 µM	> 100 µM	> 100 µM	> 100 µM	> 100 µM	> 100 µM	> 100 µM				
Cc1ccc(/C=C2/N=C(N/N=C\c3ccccc3)NC2=O)cc1		> 100 µM	> 100 µM	> 100 µM	> 100 µM	> 100 µM	> 100 µM	> 100 µM	38.4 µM	> 100 µM				
